According to patent publication US20130309389A1, “GLYCOSIDE BLENDS” (CARGILL, INCORPORATED, priority 2010, published 2013):

Experiment: Trained sensory panel rating of sweetness intensity and bitterness intensity of glycoside solutions
Assay type: in vivo, human
Settings: panel average; for Bitterness: scale 1-15 (caffeine standards); for Sweetness: scale 1-15 (sucrose standards)
Procedure: A 20 person sensory panel was trained to scale sweetness and bitterness. Reference tasting standards were prepared by dissolving respective standard material (sucrose for sweetness and caffeine for bitterness) into reverse osmosis water according to the scale values shown in Table 1 below.
The trained sensory panel evaluated pure and blended solutions of rebaudioside A, rebaudioside B, and rebaudioside D at ratios and concentrations shown in the tables and in FIGS. 1-4. Solutions were made in Evian® water. All solutions were heated to 47° C. for 10 minutes to ensure that all the glycoside material was completely dissolved. The solutions were allowed to cool to room temperature before serving to the panelists. Each solution was given a random 3-digit code and was served to the panelists in random order. Panelists dispensed 1 mL of each solution into their mouths from a pipette. The panelists were then asked to rate the “sweetness intensity” and “bitterness intensity” of the solutions and mark their responses on an un-anchored, 15 cm line ballot. The length of the line directly corresponded to the scale values (1-15) on which the participants were trained.
In order to prepare the panelists' palates, a control solution of commercial rebiana (300 ppm) was the first sample each panelist tasted during a sitting. In between testing samples, the panelists cleansed their palates with water and apple slices. The panelists also waited 5 minutes between each sample. The panelists' responses were measured, compiled, and averaged for each sample.
The figures show the concentration of the blend tested (ppm) as well as the ratio of one glycoside to another in the blend as a percentage. Each blend's sweetness and bitterness was measured by the trained panel. The blend's sweetness is measured as SEV.
Each blend was then compared to an isosweet concentration of the pure glycosides. This value represents the concentration of the pure glycoside needed to achieve the SEV value measured for the blend. Thus, if the value is greater than that of the blend, then a larger concentration of the pure glycoside would be needed to achieve the same sweetness as achieved by the blend (at the lower dosage). The tables also include an isosweet bitterness value for each pure glycoside. This value represents the intensity of bitterness measured for that concentration of pure glycoside. The concentration of the isosweet solution of rebaudioside A, rebaudioside B, or rebaudioside D and the bitterness of the isosweet solutions were calculated by a fit of the pure component sensory response (table 2) to standard psycho-sensory models.

Row | SMILES | Bitterness (114 ppm in Evian water) | Sweetness (114 ppm in Evian water) | Bitterness (229 ppm in Evian water) | Sweetness (229 ppm in Evian water) | Bitterness (343 ppm in Evian water) | Sweetness (343 ppm in Evian water) | Bitterness (457 ppm in Evian water) | Sweetness (457 ppm in Evian water) | Bitterness (571 ppm in Evian water) | Sweetness (571 ppm in Evian water) | Bitterness (800 ppm in Evian water) | Sweetness (800 ppm in Evian water) | Bitterness (57 ppm in Evian water) | Sweetness (57 ppm in Evian water) | Bitterness (171 ppm in Evian water) | Sweetness (171 ppm in Evian water) | Bitterness (286 ppm in Evian water) | Sweetness (286 ppm in Evian water) | Bitterness (400 ppm in Evian water) | Sweetness (400 ppm in Evian water)
1 | C=C1C[C@@]23CC[C@H]4[C@@](C)(CCC[C@@]4(C)C(=O)O[C@@H]4O[C@H](CO)[C@@H](O)[C@H](O)[C@H]4O)[C@@H]2CC[C@]1(O[C@@H]1O[C@H](CO)[C@@H](O)[C@H](O[C@@H]2O[C@H](CO)[C@@H](O)[C@H](O)[C@H]2O)[C@H]1O[C@@H]1O[C@H](CO)[C@@H](O)[C@H](O)[C@H]1O)C3 [Reb A, Rebaudioside A] | 4.2 | 3.1 | 5.3 | 5.7 | 6.6 | 7.4 | 7.0 | 8.4 | 8.4 | 9.2 | 9.0 | 10.1 | – | – | – | – | – | – | – | –
2 | C=C1C[C@@]23CC[C@H]4[C@@](C)(CCC[C@@]4(C)C(=O)O)[C@@H]2CC[C@]1(O[C@@H]1O[C@H](CO)[C@@H](O)[C@H](O[C@@H]2O[C@H](CO)[C@@H](O)[C@H](O)[C@H]2O)[C@H]1O[C@@H]1O[C@H](CO)[C@@H](O)[C@H](O)[C@H]1O)C3 [Reb B, Rebaudioside B] | 4.2 | 2.7 | – | – | 5.1 | 6.5 | – | – | – | – | – | – | 3.9 | 1.8 | 4.3 | 3.6 | 5.0 | 5.8 | 5.8 | 7.6
